Measured values reported in patent US7855228B2, “Antibiotics targeting MreB” (The Board of Trustees of the Leland Stamford Junior …, priority 2005, dated 2010).
Values after ≈ are worked out from the molar mass of the structure shown. Like-named read-outs stand apart in the source and are kept apart here. *1 amine or outer side, *2 acyl side, *3 side chain or, on linkers, in order; H or OH if unused. Where a SMILES comes first, the peptide text is derived from it. Bridges are numbered along the chain shown (N, C = ends). [ ]: non-standard residue; d: D form. Trp(2-yl) = O=C([C@H](Cc1c([*:3])[nH]c2ccccc12)N[*:1])[*:2]; Leu(4R-OH,5-OH) = C[C@](O)(CO)C[C@H](N)C(=O)O; cisHyp = O=C(O)[C@@H]1C[C@H](O)CN1

Tests used:
[1] = tested on: HoIB-GFP; assay: HoIB-GFP (replisome) localization; format: cell-based, Caulobacter crescentus; settings: 1 hr treatment
Description: To assess the ability of these cells to assemble a replisome at the replication origins, A22 was administered to cells expressing a fusion of GFP to the HoIB subunit of DNA polymerase.

[2] = tested on: Caulobacter; assay: Caulobacter morphology (DIC images); format: cell-based, Caulobacter crescentus; settings: drugs that affect eukaryotic actin
Text: Consistent with previous observations in E. coli (Iwai et al., 2002), A22 caused a dose-dependent alteration of Caulobacter morphology, transforming normal, crescent-shaped cells into rounded, lemon-shaped cells. The progression of cell shape deformation by A22 treatment was qualitatively similar to that caused by mreB depletion, though the A22 effect was more rapid (FIGS. […]). […] For example, A22 could disrupt the localization of new cell wall synthesis but have no effect on the existing cell wall, such that without additional growth and wall synthesis A22's effects cannot be perceived. A dependence on cell growth could also explain why A22's effect on morphology takes several hours to manifest.
Microscopy and Timelapse Imaging. All experiments other than the A22 flow-cell analysis were performed by mounting the samples on 1% agarose pads as described, with the appropriate concentration of A22 added to the agarose. The rates of origin-distal locus segregation were determined by inducing PxyI:lacI:cfp expression with 0.03% xylose for 75 min, isolating swarmer cells, and growing the swarmer cells in M2G liquid medium for 50 min. After 50 min, 10 μg/ml of A22 was added to these liquid cultures, they were mounted onto 1% M2G agarose pads containing 10 μg/ml A22, and a phase and CFP fluorescence image was captured every 2 min for 60 min. The images were analyzed by previously described software to determine the average position and rate of movement of the observed foci.

[3] = tested on: E. coli MG1655; assay: Determination of minimum inhibitory concentration (MIC); format: cell-based; settings: Escherichia coli, read-out: MIC E. coli
Description: (§1) Determination of minimum inhibitory concentration (MIC). MICs were also determined on Mueller Hinton agar plates (0.2% beef extract, 1.75% acid digest of casein, 0.15% soluble starch, 1.5% agar, pH 7.3).
(§2) Determination of MIC Minimal inhibitory concentrations (MICs) were determined using a standard 2-fold serial dilution format on L agar plates. Ten microliters of stationary culture diluted in 0.85% NaCl to 10^6 cells/ml were spotted on per plate. […] MICs were also determined on Mueller Hinton agar plates (0.2% beef extract, 1.75% acid digest of casein, 0.15% soluble starch, 1.5% agar, pH 7.3).

[4] = tested on: P. putida NBRC14164; assay: as above; format: cell-based, Pseudomonas putida; settings: Pseudomonas putida, read-out: MIC P. putida
Description: as §1, §2

[5] = tested on: S. typhimurium NBRC13245; assay: as above; format: cell-based, Salmonella typhimurium; settings: Salmonella enterica, read-out: MIC S. typhimurium
Description: as §1, §2

[6] = tested on: B. subtilis 168; assay: as above; format: cell-based, Bacillus subtilis; settings: read-out: MIC B. subtilis
Description: as §1, §2

[7] = tested on: S. aureus subsp. aureus NBRC15035; assay: as above; format: cell-based, Staphylococcus aureus; settings: Staphylococcus aureus, read-out: MIC S. aureus
Description: as §1, §2

[8] = tested on: E. coli MG1655; assay: Microscopic observation of cell shape; format: cell-based
Description: Microscopic observation. E. coli K-12 strain MG1655 (F^− λ^−) was grown in Lennox broth containing 1% Polypepton, 0.5% yeast extract, 0.5% NaCl, and 0.1% glucose (pH 7.2). Cells spread on a slide glass were treated with methanol for 5 min and covered with poly-L-lysine. The fixed cells were observed by the differential interference contrast system through an Axioskop 2 microscope (Carl Zeiss Co., Ltd., Oberkochen, Germany). To observe the anucleate cells, cells were stained with a 4′,6-diamidino-2-phenylindole (DAPI) solution (5 μg/ml in saline) and then observed by the fluorescence phase-contrast combined method.
The effect of each compound on E. coli cell morphology was next examined.

[9] = tested on: E. coli K-12 strains (ponB, mreB alleles); assay: MICs of mecillinam and A22 for E. coli K-12 strains; format: cell-based; settings: Escherichia coli
Description: as §2

[10] = tested on: E. coli JA221, JST975; assay: Cell shapes of A22-resistant mutant JA221 and parent JST975; format: cell-based; settings: mecillinam treatment (1 μg/ml, 2 h, 37° C.)
Description: FIG. 9. Effects of A22 and mecillinam on cell shapes of the A22-resistant mutant JA221. Exponentially growing cells of the A22-resistant mutant strain JA221 and the parent strain JST975 were treated with 1 μg/ml mecillinam or 10 μg/ml A22 for 2 h at 37° C. Differential interference contrast microphotographs are shown.
After prolonged (9 days) incubation of the JST975 assay plates, several isolated colonies that grew up within the clear growth inhibitory zones were purified on L plates and their A22-sensitivity was examined.

[11] = tested on: Caulobacter DNA replication; assay: Analysis of DNA replication (32P-labeled dGTP incorporation, DNA-content FACS); format: cell-based, Caulobacter crescentus; settings: 10 μg/ml A22 or 5 mg/ml HU
Text: We first examined the incorporation of radiolabeled dGTP into DNA, which linearly correlates with the rate of DNA replication. […] To assess the effect of A22 on DNA replication during the cell cycle, the radiolabeled nucleotide incorporation assay was repeated using synchronized cultures at different points in the cell cycle. Untreated cells display a dramatic rise in radioactivity levels characteristic of DNA replication initiation at the swarmer-to-stalked cell transition. This rise in radioactivity levels was also observed in A22-treated cells (FIG. 6A).
Finally, we examined the DNA content of A22-treated cells by FACS.
Analysis of DNA Replication. DNA replication was assessed by incorporation of 32P-labeled dGTP) or chromomycin-stained DNA-content FACS analysis as described previously.

[12] = tested on: E. coli K-12 strain SH3210; assay: Anucleate cell blue assay; format: cell-based
Description: Anucleate cell blue assay. The anucleate cell blue assay was carried out as reported previously. Briefly, E. coli K-12 strain SH3210 (ΔtrpE5 his λ pXX747) was grown in a P medium containing 1% Polypepton and 0.5% NaCl (pH 7). Paper disks (φ 8 mm) each soaked with 20 μl of a sample solution were placed on P medium agar plates (1.5% agar) containing 10^4 cells/ml of SH3210 and 40 μg/ml of 5-bromo-4-chloro-3-indolyl β-D-galactoside. The plates were incubated at 42° C. for 24 h, and the development of a blue color and the growth inhibitory zone around the paper disks were evaluated.
Since 1 had originally been found through screening by an anucleate cell blue assay, the effect of each compound was first examined by this assay.

[13] = MG1655, Example 2, methods as in Example 1
[14] = NBRC14164, Example 2, methods as in Example 1
[15] = Example 2, methods as in Example 1
[16] = Bacillus subtilis, 168, Example 2, methods as in Example 1
[17] = NBRC15035, Example 2, methods as in Example 1

For CO[C@@H]1[C@@H](OC(N)=O)[C@@H](O)[C@H](Oc2ccc3c(O)c(NC(=O)c4ccc(O)c(CC=C(C)C)c4)c(=O)oc3c2C)OC1(C)C [novobiocin], the HoIB-GFP localization [1] was “rapid delocalization of HoIB-GFP”.

For C=C1[C@@H](C)[C@H]2[C@H](Cc3ccccc3)NC(=O)[C@]23[C@H](OC(C)=O)/C=C/[C@@](C)(O)C(=O)[C@@H](C)C/C=C/[C@H]3[C@@H]1O [cytochalasin D], the “Caulobacter growth rate or morphology” value [2] was “failed to perturb growth rate or morphology”.

With latrunculin the “Caulobacter growth rate or morphology” value [2] was “failed to perturb growth rate or morphology”.

With CC1(C)S[C@@H]2[C@H](/N=C/N3CCCCCC3)C(=O)N2[C@H]1C(=O)O [mecillinam, reference compound] the MIC [3, 13] was 0.0977 µg/mL (≈ 0.3 µM), the MIC [4, 14] was over 100 µg/mL and the MIC [5, 15] was 0.0977 µg/mL (≈ 0.3 µM). The MIC [6, 16] was 12.5 µg/mL (≈ 38.4 µM), the MIC [7, 17] was 50 µg/mL (≈ 154 µM) and the Shape [8, 15] was “Sphere”. It also gave an MIC ([9]; read-out: MICs, strain JA221 (ponB −, mreB221)) of 0.125 µg/mL (≈ 0.384 µM), an MIC ([9]; read-out: MICs, strain JE1011 (ponB +, mreB +)) of 0.25 µg/mL (≈ 0.768 µM) and an MIC ([9]; read-out: MICs, strain JM109/pMW218 (ponB +, mreB +/−)) of 0.125 µg/mL (≈ 0.384 µM). For the same compound, the MIC ([9]; read-out: MICs, strain JM109/pMreB1 (ponB +, mreB +/+)) was 0.125 µg/mL (≈ 0.384 µM), the MIC ([9]; read-out: MICs, strain JM109/pMreB221 (ponB +, mreB +/mreB221)) was 0.125 µg/mL (≈ 0.384 µM) and the MIC ([9]; read-out: MICs, strain JST975 (ponB −, mreB +)) was 0.125 µg/mL (≈ 0.384 µM). For the same compound, the MIC ([9]; read-out: MICs, strain JSTA220 (ponB −, mreB +)) was 0.125 µg/mL (≈ 0.384 µM), the MIC ([9]; read-out: MICs, strain JSTA221 (ponB −, mreB221)) was 0.125 µg/mL (≈ 0.384 µM) and the MIC ([9]; read-out: MICs, strain WA220 (ponB +, mreB +)) was 0.25 µg/mL (≈ 0.768 µM). The MIC ([9]; read-out: MICs, strain WA221 (ponB +, mreB221)) was 0.25 µg/mL (≈ 0.768 µM) and the “Cell shape of resistant mutant JA221” value [10] was “formed spherical cells”.

For NC(=O)NO [HU, hydroxyl-urea, reference compound], the “Incorporation of radiolabeled dGTP, synchronized cultures (replication initiation)” value [11] was “no such increase in radioactivity levels” and the HoIB-GFP localization [1] was “rapid delocalization of HoIB-GFP”.

In the case of C/C1=C\[C@H](C)C[C@H](C)OC(=O)C[C@H](c2ccc(O)cc2)NC(=O)[C@@H](Cc2c(Br)[nH]c3ccccc23)N(C)C(=O)[C@H](C)NC(=O)[C@@H](C)C1 [jasplakinolide], the “Caulobacter growth rate or morphology” value [2] is reported as “failed to perturb growth rate or morphology”.

With N=C(N)SCC1CCCCC1 [Compound 4] the “Growth inhibitory zone and blue zone in the anucleate cell blue assay (in words)” value [12] was “neither a growth inhibitory zone nor blue zone”, the MIC [3, 13] was over 200 µg/mL and the MIC ([3]; MG1655, Table 1, E. coli MG1655) was over 100 µg/mL. It also gave an MIC [4, 14] of over 200 µg/mL, an MIC ([4]; NBRC14164, Table 1, NBRC14164) of over 100 µg/mL and an MIC [5, 15] of over 200 µg/mL. For the same compound, the MIC ([5]; Table 1, NBRC13245) was over 100 µg/mL, the MIC [6, 16] was over 200 µg/mL and the MIC ([6]; Bacillus subtilis, 168, Table 1, B. subtilis 168) was over 100 µg/mL. The MIC [7, 17] was over 200 µg/mL, the MIC ([7]; NBRC15035, Table 1, NBRC15035) was over 100 µg/mL and the “Effect on E. coli cell morphology (in words)” value ([8]; 3×MIC or 300 μg/ml, 30° C., 16 hrs) was “shorter than corresponding untreated cells, but spherical cells were not induced”. For the same compound, the Shape ([8]; E. coli MG1655 treated at 300 μg/ml (**), 30° C., 16 h) was “Rod**” and the Shape [8, 15] was “Short Rod”.

C[C@@H]1NC(=O)[C@H](C[C@@](C)(O)CO)NC(=O)[C@@H]2Cc3c([nH]c4ccccc34)SC[C@H](NC(=O)[C@@H]([C@H](C)O)NC1=O)C(=O)N1C[C@@H](O)C[C@H]1C(=O)N[C@@H](C)C(=O)N2 [phalloidin] (cyclo(A[dT]C[cisHyp]A[Trp(2-yl)][Leu(4R-OH,5-OH)]); thioether 3-6) was tested, and the “Caulobacter growth rate or morphology” value [2] was “failed to perturb growth rate or morphology”.
